This is an account of results in a melting point compilation (Tetko et al.; mined from patent text by program, amines drawn as free bases though some values may be those of a salt).

Each structure is given as a SMILES string. Some results are limits rather than exact numbers.

For `O=C(Nc1ccc2nc(CN3CCCCC3)ccc2c1)c1ccc(-c2ccccc2F)cc1`, the melting point is 163 to 164 °C. The figure for `OC12CCCC1N=C(S)N2c1ccccn1` (stereo unspecified) is 126 to 127 °C; for `CCOC(=O)C(NO)NC(C)=O` (stereo unspecified) it is 119 to 121 °C.

The compound `CC(=O)NC[C@H]1CN(c2ccc(N3CCC4(CC3)CC4(C#N)C#N)c(F)c2)C(=O)O1` yielded a melting point of 188 to 190 °C. The compound `Cc1cc(SC2=C(O)CC(CCc3ccsc3)(C(C)C)OC2=O)c(C(C)(C)C)cc1CO` (stereo unspecified) displayed a melting point of 63 to 70 °C. In the case of `CC(C)C(=O)Oc1ccc2nc(NC(=O)Nc3ccccc3)sc2c1`, the melting point was 212 to 215 °C.

With `OC1CCCc2c(-c3ccc4nc(-c5ccc(Cl)cc5)cn4c3)cccc21` (stereo unspecified), the melting point is 218 to 220 °C. Then `NC(N)=Nc1nc(-c2cccc(CO)n2)cs1`, with 229 °C.

The compound `CCOC(=O)c1ccc(NC(=O)c2ccc(F)cc2)cc1` yielded a melting point of 172 to 174 °C. The figure for `CCN(CC)C(C)CN1CCc2c(c(=O)oc3cc(C)c(Cl)cc23)C1` (stereo unspecified) is 78 to 80 °C; for `O=C1C=C(NC(=O)C(=O)c2cn(Cc3ccc(F)cc3)c3cc4c(cc23)OCO4)CO1` it is 210 to 212 °C; for `N#CCCNC(=O)c1ccnc(-c2cccc3nn(Cc4cccc(C(F)(F)F)c4)cc23)c1` it is 147 to 148 °C.

Compound `Cc1cccc(NC(=O)NCC(=O)N(CC(=O)NCC2CC2)c2ccccc2)c1` came in with a melting point of 168 °C. Then `O=C(CCCC1CCN(Cc2cccc(O)c2)CC1)c1ccc2c(c1)CCN(Cc1ccccc1)CC2`, with 88 to 94 °C.

Take `C#Cc1ccc(C2=C(C#N)C(=C(C#N)C#N)OC2(C)C)cc1`: the melting point turned out to be 225 °C. `Cc1cc(-n2cncn2)ccc1[N+](=O)[O-]` gave a melting point of 116 to 117 °C. With `CCCC1=C(C(=O)OCC)C(c2cccc(F)c2C)c2c[nH]nc2N1` (stereo unspecified), the melting point lay in the range of 159 to 162 °C.

In the case of `CCOc1ccc(-c2ccc(N3CC(CNC(C)=O)OC3=O)cc2)ccc1=O` (stereo unspecified), the melting point was 228 to 229 °C. Then `CC(=O)NC(=O)CSC(c1ccccc1)(c1ccccc1)c1ccccc1`, with 147 to 149 °C.

In turn, `CCOc1nc2ccccc2nc1NC(=O)N1CCN(C(c2ccccc2)c2ccccc2)CC1` registered a melting point of 156 to 158 °C. Then `Cc1oc(-c2ccccc2)nc1CCOc1ccc(COc2cc3ccccc3cc2C(=O)O)cc1`, with 135 to 137 °C; and `COc1ccccc1N1CCN(CCn2c(=O)c3sccc3n(C(C)=O)c2=O)CC1`, with 156 to 158 °C.

As for `COc1cc(OCCCN(C)Cc2ccc(OC)c(OC)c2)ccc1NC(=O)c1cccc2c(=O)c3cccc(F)c3[nH]c12`, the melting point was 108 °C. The figure for `CCP(=O)(OC)C(O)[C@H](CC1CCCCC1)NC(=O)[C@H](CC(C)C)NC(=O)[C@H](Cc1ccccc1)NC(=O)C1CCCC1` (stereo partly specified) is 155 to 165 °C; for `CC(=O)OC1(C)CN(C(=O)Nc2ccc(C(F)(F)F)cc2)N=C1c1ccc(Cl)cc1` (stereo unspecified) it is 92 to 96 °C. For the compound `CN(CCN)CCNC(=O)c1nc(Br)c(N)nc1N`, the melting point lay in the range of 148 to 150 °C. Then `COc1c(Br)cc([N+](=O)[O-])cc1-c1c2ccccc2c(Br)c2sc(C)c(C)c12`, with 204 to 205 °C.

`COc1cc(C(=O)c2ncc3ccc(NC(C)=O)cn23)ccc1[N+](=O)[O-]` returned a melting point of 257 °C. The figure for `C=CCN(C)c1c(C=NO)c(=O)n(C)c(=O)n1C` is 95.5 to 97.1 °C. `Nc1ccccc1OC1CCCC1` registered a melting point of 87 to 87.5 °C. For the compound `CC(Br)C(=O)c1ccc(CN2C(=O)c3ccccc3C2=O)s1` (stereo unspecified), the melting point was in the range of 127 to 130 °C. The figure for `Cc1nc(-c2cccc(C(=O)Nc3ccc(Cl)cc3)c2)sc1C(=O)O` is 246 to 248 °C; for `COc1ccc(C2=NNC(=O)[C@H]3CC=CC[C@@H]23)cc1Cl` (relative stereo) it is 183 to 185 °C; for `CCOC(=O)c1cc(S)n2nc(C)nc2n1` it is 234 to 236 °C. The figure for `CCCC[C@H]1CC[C@H](c2ccc(OC(=O)[C@H]3CC[C@H](CCC)C3)cc2)CC1` (relative stereo) is 90 °C. Then `CCOC(=O)CCCN(C(=O)CC)C(c1ccccc1)c1ccccc1`, with 83 to 85 °C; and `Cc1csc(NC(=S)Nc2cc(Cl)ccc2C)n1`, with 188 °C. For the compound `CC(=O)Nc1ccc([N+](=O)[O-])s1`, the melting point stood at 226 °C. The figure for `CCOC(=O)C(C)=Cc1ccc([N+](=O)[O-])cc1` is 75 °C; for `CC(C)N1C(=O)N(c2ccc([N+](=O)[O-])c(C(F)(F)F)c2)C(=O)C1(C)C` it is 130 °C. In the case of `O=[N+]([O-])c1ccc(C(O)C(CO)N2CCC(Cc3ccccc3)CC2)cc1` (stereo unspecified), the melting point is 122 to 124 °C.

`CCNCc1ccc2nc(C)[nH]c(=O)c2c1` returned a melting point of over 260 °C. Then `CC[C@@]12C[C@@](C)(O)[C@](O)(c3ccccc3)C[C@H]1CCc1cc(OCc3nnn[nH]3)ccc12`, with 108 to 110 °C; and `CC(O)(CF)C(=O)Nc1ccc(S(=O)(=O)c2ccccc2)cc1` (stereo unspecified), with 189 to 192 °C; and `O=C(Nc1cccc(-c2ccnc3c(C(=O)c4cccs4)cnn23)c1)c1ccccc1F`, with 190 to 191 °C. Then `Cc1cc(C2=NOC(c3cc(Cl)cc(Cl)c3)(C(F)(F)F)C2)ccc1C(=O)O` (stereo unspecified), with 146 to 148 °C; and `CCS(=O)(=O)N[C@H](C(=O)NCCc1ccc(OC/C=C/c2ccccc2)c(OC)c1)C(C)C`, with 128 to 133 °C. Regarding `c1ccc(COc2ccc3[nH]cc(Cc4cccnc4)c3c2)cc1`, the melting point came out at 148 °C. Then `Cc1cccnc1-c1ccc(Cl)cc1Cl`, with 38 to 42.8 °C; and `COc1cc(C(=O)N2Cc3ccc(C(=O)N(C)CC(O)CO)n3Cc3ccccc32)ccc1-c1ccccc1C(F)(F)F` (stereo unspecified), with 119 to 123 °C; and `C[N+]([O-])=NNc1cccnc1`, with 95 to 97 °C.

On to `c1cncc(-c2ccnc3nc(N4CCNCC4)nn23)c1`, for which the melting point lay within 156 to 158 °C. Then `Cc1oc(-c2ccccc2)nc1COc1ccc(Cn2cc(CO)cn2)cc1`, with 100 to 101 °C. The figure for `CC(=O)NC(Cc1ccccc1)C(O)C(Cc1ccccc1)NC(C)=O` (stereo unspecified) is 125 to 126 °C; for `CNC(=O)c1ncnc(C)c1NC(=O)c1cc(Cl)nn1-c1ncccc1Cl` it is 205 to 207 °C; for `CCC(=O)NN=C(Nc1ccc([N+](=O)[O-])cc1)c1ccc(OC)cc1` it is 200 °C. `Cc1cc(SC2=C(O)CC(C3CCCC3)(C3CCCC3)OC2=O)c(C(C)(C)C)cc1NS(=O)(=O)c1ccc(C(F)(F)F)cn1` returned a melting point of 127 to 129 °C. As to `Nc1ccc(Cl)cc1C(=O)c1c(F)cccc1F`, the melting point was in the range of 103 to 105 °C. As for `O=c1c(-c2ccccc2)c[nH]cc1-c1ccccc1`, the melting point was over 335 °C. Then `COc1ccc(CNC(=O)n2cc(F)c(=O)[nH]c2=O)c(OC)c1OC`, with 159 °C; and `CNC(=S)NCCCCCCc1csc(NC(=N)N)n1`, with 162 to 164 °C; and `CC(C)Oc1c(C(=O)NCc2ccccc2)oc2ccc(Cl)cc12`, with 80 to 82 °C.

For `CCOc1cc(N(Cc2cccnc2)c2ccc(C(=O)O)cc2)ccc1OC(F)F`, the melting point lay within 178 to 179 °C.

Compound `COC(=O)Cc1csc2cc(-c3ccccc3)cn12` gave a melting point of 88 to 89 °C. The figure for `CN(C)c1ccc2c(c1)Sc1cc(N(C)C=O)ccc1N2C=O` is 139 to 143 °C; for `COc1cccc(N(CCN2CCC(C(=O)c3ccc(F)cc3)CC2)C(=O)c2ccc(NC(C)=O)cc2)c1` it is 146 to 152 °C. The figure for `CC(C)(C)NCC(O)COc1cc(Cl)ccc1-c1ccc(=S)[nH]n1` (stereo unspecified) is 195 to 198 °C; for `O=CNNc1ccc(NC(=S)N2CCOCC2)cc1` it is 204 to 206 °C. Then `Cc1cc(C)c(C(=O)P(=O)(Oc2ccccc2C(C)(C)C)c2ccccc2)c(C)c1` (stereo unspecified), with 76 to 79 °C; and `CC(C)(C)c1ccc(CNc2nc(Nc3cccc(C(F)(F)F)c3)nc(C(F)(F)F)n2)cc1`, with 53 to 55 °C; and `O=C(O)c1ccc(C2OC23Cc2ccccc2C3=O)cc1` (stereo unspecified), with 220 °C. In the case of `CCCCNC(=O)NS(=O)(=O)CCc1c(C2CC2)nn(C)c1-n1ccc2cc(Cl)cnc21`, the melting point lay in the range of 167 to 168 °C. Then `Cc1ccc(OC(=O)N=C2NC(c3ccc(C)cc3)=NC2(C(F)(F)F)C(F)(F)F)cc1`, with 161 to 163 °C. The figure for `NC(=O)NCc1cccc2c1C(=O)N(C1CCC(=O)NC1=O)C2=O` (stereo unspecified) is 292 to 294 °C; for `COc1ccc(S(C)(=O)=O)cc1N` it is 174 to 178 °C; for `COc1cc(OC)cc(C(=O)N2CCc3cc(OCc4ccccc4)c(OC)cc3C2)c1` it is 130 to 131 °C.

In turn, `Cc1nc(C#CCCn2nc3ccccc3n2)sc1C` gave a melting point of 96 to 98 °C. The figure for `C#CCc1cc(C(O)=S)cc(S(=O)(=O)Cl)c1Oc1ccccc1` is 177 to 179 °C. Then `CC(C)c1nn(-c2c(Cl)cc(C(F)(F)F)cc2Cl)c(Cl)c1-c1nc(C#N)c(C#N)[nH]1`, with 96 to 99 °C.

`Cc1c2n3ccc4c3c(c3cnccn3c-2cc(=O)c1=O)CCC4` had a melting point of over 80 °C. As to `O=[N+]([O-])c1cc(C(F)(F)F)c(Br)cc1-n1ccnc1`, the melting point fell in the range of 149 to 157 °C. Then `OCc1cc2cc(Br)ccc2[nH]1`, with 111 to 112 °C; and `CC(C)(C)OC(=O)NC(C)(C)c1ccc(Br)nc1`, with 100 to 103 °C; and `Cc1cc(-c2sc(N3CCN(Cc4ccc(F)cc4)C3=O)nc2C)n[nH]1`, with 218 to 221 °C.

For the compound `O=C(CCl)NC[C@@H]1CN2C(=O)C[C@H]2O1` (racemic), the melting point was in the range of 65 to 66.4 °C.

`COc1ccccc1OC(=O)c1ncn2c1[C@@H]1CCCN1C(=O)c1c(Cl)cccc1-2` showed a melting point of 205 to 206 °C.

In general, melting point refers to the temperature, or range, at which the solid turns liquid.
